Key:
S. aureus DSM 20231 [1] = assay: Bliss interaction score (quartile over a dose matrix) (fitness difference); higher = more antagonism (negative = synergy)
Procedure, shortened: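 Each plate was normalised to the robust mean of its own no-drug wells, using OD595 at entry into stationary phase, with values capped at 1. This normalised growth is the fitness value. The Bliss score is the difference between observed and product-expected fitness, with single-drug fitness inferred from the combination data and quartiles taken over technical, biological and donor/recipient replicates.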

S. aureus DSM 20231 [2] = assay: fitness (endpoint OD595 vs no drug) (fraction); higher = more growth
Procedure, shortened: (§1)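 In 384-well plates at 37 °C, cultures began at OD595 0.01 in 30 µl, with 55 µl used for S. pneumoniae. OD595 readings every 30 min for 14 h were corrected by the first reading. Fitness divides the stationary-phase transition optical density by the robust mean of no-drug control wells. The result is capped at 1.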

S. aureus Newman = assay: as above
Procedure, shortened: as §1

S. pneumoniae D39V = assay: as above
Procedure, shortened: as §1
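Throughout, for Bliss interaction score (quartile over a dose matrix): first quartile when negative (synergy) and third quartile when positive (antagonism).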

CO/N=C(\C(=O)N[C@@H]1C(=O)N2C(C(=O)O)=C(COC(C)=O)CS[C@H]12)c1csc(N)n1 [Cefotaxime] + Nc1ccc(O)c(C(=O)O)c1 [Mesalamine]
Settings | Bliss interaction score
S. aureus DSM 20231 [1] | 0.16

CO/N=C(\C(=O)N[C@@H]1C(=O)N2C(C(=O)O)=C(COC(C)=O)CS[C@H]12)c1csc(N)n1 [Cefotaxime] + O=c1[nH]cc(F)c(=O)[nH]1 [Fluorouracil]
Settings | Bliss interaction score
S. aureus DSM 20231 [1] | -0.114

CO/N=C(\C(=O)N[C@@H]1C(=O)N2C(C(=O)O)=C(COC(N)=O)CS[C@H]12)c1ccco1 [Cefuroxime] + CCCSc1nc(N[C@@H]2C[C@H]2c2ccc(F)c(F)c2)c2nnn([C@@H]3C[C@H](OCCO)[C@@H](O)[C@H]3O)c2n1 [Ticagrelor]
Settings | Bliss interaction score
S. aureus DSM 20231 [1] | 0.137

COCCOC(=O)C1=C(C)NC(C)=C(C(=O)OC/C=C/c2ccccc2)C1c1cccc([N+](=O)[O-])c1 (configuration not stated) [Cilnidipine] + CC1(C)S[C@@H]2[C@H](NC(=O)Cc3ccccc3)C(=O)N2[C@H]1C(=O)O [PenicillinG]
Settings | Bliss interaction score
S. aureus DSM 20231 [1] | -0.229

COCCOC(=O)C1=C(C)NC(C)=C(C(=O)OC/C=C/c2ccccc2)C1c1cccc([N+](=O)[O-])c1 (configuration not stated) [Cilnidipine] + CC(=O)NC[C@H]1CN(c2ccc(N3CCOCC3)c(F)c2)C(=O)O1 [Linezolid]
Settings | Bliss interaction score
S. aureus DSM 20231 [1] | -0.254

COCCOC(=O)C1=C(C)NC(C)=C(C(=O)OC/C=C/c2ccccc2)C1c1cccc([N+](=O)[O-])c1 (configuration not stated) [Cilnidipine] + CCC(C)C1C(=O)NC(=C)C(=O)NC(C(=O)NC(CSCC(C(=O)N1)NC(=O)/C(=C/C)/NC(=O)C(C(C)CC)N)C(=O)NC2C(SCC(NC(=O)CNC(=O)C3CCCN3C2=O)C(=O)NC(CCCCN)C(=O)NC4C(SCC(NC(=O)CNC(=O)C(NC(=O)C(NC(=O)C(NC(=O)CNC4=O)C)CC(C)C)CCSC)C(=O)NC(CC(=O)N)C(=O)NC(CCSC)C(=O)NC(CCCCN)C(=O)NC5C(SCC6C(=O)NC(C(=O)NC(CSC(C(C(=O)N6)NC(=O)C(NC5=O)C)C)C(=O)NC(CO)C(=O)NC(C(C)CC)C(=O)NC(CC7=CN=CN7)C(=O)NC(C(C)C)C(=O)NC(=C)C(=O)NC(CCCCN)C(=O)O)CC8=CN=CN8)C)C)C)CC(C)C [Nisin]
Settings | Bliss interaction score
S. aureus DSM 20231 [1], main component drawn | 0.156

COCCOC(=O)C1=C(C)NC(C)=C(C(=O)OC/C=C/c2ccccc2)C1c1cccc([N+](=O)[O-])c1 (configuration not stated) [Cilnidipine] + CCC[C@@H]1C[C@@H](C(=O)N[C@@H]([C@H]2O[C@H](SC)[C@H](O)[C@@H](O)[C@H]2O)[C@H](C)Cl)N(C)C1 [Clindamycin]
Settings | Bliss interaction score
S. aureus DSM 20231 [1] | -0.221

COc1cccc2c1C(=O)c1c(O)c3c(c(O)c1C2=O)C[C@@](O)(C(=O)CO)C[C@@H]3O[C@H]1C[C@H](N)[C@H](O)[C@H](C)O1 [Doxorubicin] + CO/N=C(\C(=O)N[C@@H]1C(=O)N2C(C(=O)[O-])=C(C[N+]3(C)CCCC3)CS[C@H]12)c1csc(N)n1 [Cefepime]
fitness
Settings | first compound 0.25 µg/mL | first compound 0.5 µg/mL | first compound 0.625 µg/mL | first compound 1 µg/mL | first compound 1.25 µg/mL | first compound 2.5 µg/mL
S. aureus DSM 20231 [2], partner 0.125 µg/mL | – | – | 0.861 | – | 0.828 | 0.721
S. aureus DSM 20231 [2], partner 0.25 µg/mL | – | – | 0.826 | – | 0.814 | 0.656
S. aureus DSM 20231 [2], partner 0.5 µg/mL | – | – | 0.741 | – | 0.71 | 0.62
S. aureus Newman, partner 0.125 µg/mL | – | – | 0.783 | – | 0.773 | 0.716
S. aureus Newman, partner 0.25 µg/mL | – | – | 0.762 | – | 0.744 | 0.696
S. aureus Newman, partner 0.5 µg/mL | – | – | 0.659 | – | 0.732 | 0.683
S. pneumoniae D39V, partner 0.007 µg/mL | 0.937 | 0.949 | – | 0.957 | – | –
S. pneumoniae D39V, partner 0.0078 µg/mL | ≥ 1 | ≥ 1 | – | 0.938 | – | –
S. pneumoniae D39V, partner 0.014 µg/mL | 0.912 | 0.935 | – | 0.942 | – | –
S. pneumoniae D39V, partner 0.0155 µg/mL | 0.974 | 0.994 | – | 0.917 | – | –
S. pneumoniae D39V, partner 0.028 µg/mL | 0.783 | 0.846 | – | 0.825 | – | –

COc1cccc2c1C(=O)c1c(O)c3c(c(O)c1C2=O)C[C@@](O)(C(=O)CO)C[C@@H]3O[C@H]1C[C@H](N)[C@H](O)[C@H](C)O1 [Doxorubicin] + CO[C@@]12[C@H](COC(N)=O)C3=C(C(=O)C(C)=C(N)C3=O)N1C[C@@H]1N[C@@H]12 [Mitomycin C]
fitness
Settings | first compound 0.25 µg/mL | first compound 0.5 µg/mL | first compound 0.625 µg/mL | first compound 1 µg/mL | first compound 1.25 µg/mL | first compound 2.5 µg/mL
S. aureus DSM 20231 [2], partner 0.0156 µg/mL | – | – | 0.699 | – | 0.697 | 0.668
S. aureus DSM 20231 [2], partner 0.0312 µg/mL | – | – | 0.659 | – | 0.641 | 0.61
S. aureus DSM 20231 [2], partner 0.0625 µg/mL | – | – | 0.52 | – | 0.496 | 0.473
S. aureus Newman, partner 0.0156 µg/mL | – | – | 0.669 | – | 0.692 | 0.672
S. aureus Newman, partner 0.0312 µg/mL | – | – | 0.63 | – | 0.699 | 0.599
S. aureus Newman, partner 0.0625 µg/mL | – | – | 0.531 | – | 0.507 | 0.408
S. pneumoniae D39V, partner 0.001075 µg/mL | 0.834 | 0.842 | – | 0.81 | – | –
S. pneumoniae D39V, partner 0.002 µg/mL | 0.836 | 0.822 | – | 0.696 | – | –
S. pneumoniae D39V, partner 0.00215 µg/mL | 0.838 | 0.848 | – | 0.783 | – | –
S. pneumoniae D39V, partner 0.004 µg/mL | 0.707 | 0.664 | – | 0.632 | – | –
S. pneumoniae D39V, partner 0.0043 µg/mL | 0.681 | 0.671 | – | 0.58 | – | –
S. pneumoniae D39V, partner 0.008 µg/mL | 0.458 | 0.435 | – | 0.404 | – | –

C[C@@H]1O[C@@H]1P(=O)(O)O [Fosfomycin] + CO[C@@]12[C@H](COC(N)=O)C3=C(C(=O)C(C)=C(N)C3=O)N1C[C@@H]1N[C@@H]12 [Mitomycin C]
fitness
Settings | first compound 0.781 µg/mL | first compound 1.25 µg/mL | first compound 1.562 µg/mL | first compound 2.5 µg/mL | first compound 3.124 µg/mL | first compound 5 µg/mL
S. aureus DSM 20231 [2], partner 0.0156 µg/mL | 0.607 | – | 0.494 | – | 0.43 | –
S. aureus DSM 20231 [2], partner 0.0312 µg/mL | 0.57 | – | 0.497 | – | 0.318 | –
S. aureus DSM 20231 [2], partner 0.0625 µg/mL | 0.49 | – | 0.35 | – | 0.165 | –
S. aureus Newman, partner 0.0156 µg/mL | 0.576 | – | 0.452 | – | 0.124 | –
S. aureus Newman, partner 0.0312 µg/mL | 0.543 | – | 0.363 | – | 0.0839 | –
S. aureus Newman, partner 0.0625 µg/mL | 0.373 | – | 0.114 | – | 0.0142 | –
S. pneumoniae D39V, partner 0.001075 µg/mL | – | 0.903 | – | 0.869 | – | 0.772
S. pneumoniae D39V, partner 0.002 µg/mL | – | 0.858 | – | 0.812 | – | 0.694
S. pneumoniae D39V, partner 0.00215 µg/mL | – | 0.843 | – | 0.837 | – | 0.733
S. pneumoniae D39V, partner 0.004 µg/mL | – | 0.793 | – | 0.77 | – | 0.617
S. pneumoniae D39V, partner 0.0043 µg/mL | – | 0.748 | – | 0.734 | – | 0.652
S. pneumoniae D39V, partner 0.008 µg/mL | – | 0.65 | – | 0.648 | – | 0.574
